The record followed here is patent publication US20130150376A1, “Novel Sultam Compounds” (PFIZER INC., priority 2010, published 2013).

Where a name gives a salt, the structure may show the parent alone. Read-outs that look alike come from different tables or passages of the source.

The test concerns the target T1, BACE1 enzyme (soluble, truncated BACE enzyme, BACE1deltaTM96His) (Homo sapiens, UniProt P56817).
T1 construct: soluble, truncated BACE enzyme (BACE1deltaTM96His); His; made in house
Nature of the test: BACE1 Fluorescent Polarization (FP) Assay. The test is classed as biochemical. The conditions noted are these: geometric mean of 2-4 IC50 determinations unless footnoted (^2: 5-6 determinations; ^4: single determination). An excerpt: BACE1 Fluorescent Polarization (FP) Assay
The fluorescently tagged synthetic substrate, Biotin-GLTNIKTEEISEISŶEVEFR-C[oregon green]KK-OH can be efficiently cleaved by the beta-secretase enzyme and is therefore useful to assay beta-secretase activity in the presence or absence of inhibitory compounds. The his tagged BACE1 enzyme was affinity purified material from conditioned media of CHO-K1 cells that had been transfected to express soluble, truncated BACE enzyme (BACE1deltaTM96His). Compounds were incubated in a ½ log dose response (from a top concentration of 100 μM) with BACE1 enzyme (0.1 nM final) and the biotinylated fluorescent peptide substrate (150 nM final) in assay buffer containing 100 mM sodium acetate, pH 4.5 (brought to pH with acetic acid), and 0.001% Tween-20. Total reaction volumes of 30 μL were carried out in 384-well black plates (Thermo Scientific 4318). Plates were covered and incubated for 3 hours at 37° C. The reactions were then stopped by addition of 30 μL of 1.5 μM Streptavidin (Pierce, 21125). After a 10 minute incubation at room temperature, plates were read on a PerkinElmer Envision for fluorescence polarization (Ex485 nm/Em530 nm). The activity of the beta-secretase enzyme is detected by changes in the fluorescence polarization (Δ mP) that occur when the substrate is cleaved by the enzyme.

[1] abbreviates: 8-point curve, read-out: BACE activity, 8-point curve, IC50.
The mark [2] stands for this setting: 11-point curve, read-out: BACE activity, 11-point curve, IC50.

T1 sequence (P56817 46-457): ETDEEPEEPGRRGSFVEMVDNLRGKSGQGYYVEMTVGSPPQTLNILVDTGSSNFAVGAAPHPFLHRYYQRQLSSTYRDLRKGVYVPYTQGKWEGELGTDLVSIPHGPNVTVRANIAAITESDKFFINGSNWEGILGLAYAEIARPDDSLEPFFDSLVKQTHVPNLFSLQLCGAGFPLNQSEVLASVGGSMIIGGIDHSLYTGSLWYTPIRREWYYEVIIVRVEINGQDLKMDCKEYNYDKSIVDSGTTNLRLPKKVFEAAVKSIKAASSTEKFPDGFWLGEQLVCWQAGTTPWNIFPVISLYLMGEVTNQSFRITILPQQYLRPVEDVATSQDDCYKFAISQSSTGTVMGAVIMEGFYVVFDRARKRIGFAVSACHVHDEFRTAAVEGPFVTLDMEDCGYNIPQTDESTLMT

In general, IC50 refers to the concentration that gives 50% inhibition. `C[C@H]1C[C@@]2(C=CS(=O)(=O)N2c2cccc(F)c2)CCN1Cc1ncoc1-c1cncnc1` [Example 23, (5R,7S)-1-(3-fluorophenyl)-7-methyl-8-[(5-pyrimidin-5-yl-1,3-oxazol-4-yl)methyl]-2-thia-1,8-diazaspiro[4.5]dec-3-ene 2,2-dioxide, hydrochloride salt]: the IC50 runs as follows: under setting [1], 0.428 µM; under setting [2], 1.45 µM.
On the same counts, the results for `C[C@H]1C[C@@]2(C=CS(=O)(=O)N2c2cccc(F)c2)CCN1Cc1scnc1CC1CC1` [Example 24, (5R,7S)-8-{[4-(cyclopropylmethyl)-1,3-thiazol-5-yl]methyl}-1-(3-fluorophenyl)-7-methyl-2-thia-1,8-diazaspiro[4.5]dec-3-ene 2,2-dioxide, hydrochloride salt] are 0.0519 µM and 0.353 µM.
For the compound `Cc1ccccc1-c1cc(CN2CC[C@]3(C=CS(=O)(=O)N3c3cccc(F)c3)C[C@@H]2C)ccc1O` [Example 25, 5-{[(5R,7S)-1-(3-fluorophenyl)-7-methyl-2,2-dioxido-2-thia-1,8-diazaspiro[4.5]dec-3-en-8-yl]methyl}-2′-methylbiphenyl-2-ol, hydrochloride salt], the IC50 runs as follows: under setting [1], 0.0143 µM; under setting [2], 0.0284 µM.
On the same counts, the results for `CCOc1cc(CN2CC[C@]3(C=CS(=O)(=O)N3c3cccc(F)c3)C[C@@H]2C)ccc1O` [Example 27, 2-ethoxy-4-{[(5R,7S)-1-(3-fluorophenyl)-7-methyl-2,2-dioxido-2-thia-1,8-diazaspiro[4.5]dec-3-en-8-yl]methyl}phenol] are 0.116 µM and 0.269 µM.
On the same counts, the results for `CC(C)Oc1cccc(CN2CC[C@]3(CCS(=O)(=O)N3c3cccc(F)c3)C[C@@H]2C)c1` [Example 28, (5R,7S)-1-(3-fluorophenyl)-8-(3-isopropoxybenzyl)-7-methyl-2-thia-1,8-diazaspiro[4.5]decane 2,2-dioxide] are 0.521 µM and 2.16 µM.
On the same counts, the results for `C[C@H]1C[C@]2(CCN1Cc1ccc(O)c(Cl)c1)CCS(=O)(=O)N2c1cccc(F)c1` [Example 29, 2-chloro-4-{[(5R7S)-1-(3-fluorophenyl)-7-methyl-2,2-dioxido-2-thia-1,8-diazaspiro[4.5]dec-8-yl]methyl}phenol, hydrochloride salt] are 0.332 µM and 1.53 µM.
Regarding `C[C@H]1C[C@]2(CCN1Cc1ncoc1-c1cccnc1)CCS(=O)(=O)N2c1cccc(F)c1` [Example 32, (5R,7S)-1-(3-fluorophenyl)-7-methyl-8-[(5-pyridin-3-yl-1,3-oxazol-4-yl)methyl]-2-thia-1,8-diazaspiro[4.5]decane 2,2-dioxide, hydrochloride salt], the IC50 under setting [2] amounted to 4.29 µM.
Same read-out and setting: then `C[C@H]1C[C@]2(CCN1Cc1ncoc1-c1cncnc1)CCS(=O)(=O)N2c1cccc(F)c1` [Example 33, (5R,7S)-1-(3-fluorophenyl)-7-methyl-8-[(5-pyrimidin-5-yl-1,3-oxazol-4-yl)methyl]-2-thia-1,8-diazaspiro[4.5]decane 2,2-dioxide, hydrochloride salt], with 3.03 µM; and `C[C@H]1C[C@@]2(C=CS(=O)(=O)N2c2cccc(F)c2)CCN1Cc1ncoc1-c1cccs1` [Example 34, (5R,7S)-1-(3-fluorophenyl)-7-methyl-8-{[5-(2-thienyl)-1,3-oxazol-4-yl]methyl}-2-thia-1,8-diazaspiro[4.5]dec-3-ene 2,2-dioxide, hydrochloride salt], with 5.89 µM.
Regarding `C[C@H]1C[C@@]2(C=CS(=O)(=O)N2c2cccc(F)c2)CCN1Cc1ncoc1-c1cncs1` [Example 35, (5R,7S)-1-(3-fluorophenyl)-7-methyl-8-{[5-(1,3-thiazol-5-yl}-1,3-oxazol-4-yl]methyl}-2-thia-1,8-diazaspiro[4.5]dec-3-ene 2,2-dioxide], the half-inhibitory concentration (IC50) reads like this: under setting [1], 2.18 µM; under setting [2], 3 µM.
On the same counts, the results for `Cc1ncsc1-c1ocnc1CN1CC[C@]2(C=CS(=O)(=O)N2c2cccc(F)c2)C[C@@H]1C` [Example 36, (5R,7S)-1-(3-fluorophenyl)-7-methyl-8-{[5-(4-methyl-1,3-thiazol-5-yl)-1,3-oxazol-4-yl]methyl}-2-thia-1,8-diazaspiro[4.5]dec-3-ene 2,2-dioxide] are 2.51 µM and 6.29 µM.
`Cc1ccsc1-c1ocnc1CN1CC[C@]2(C=CS(=O)(=O)N2c2cccc(F)c2)C[C@@H]1C` [Example 37, (5R,7S)-1-(3-fluorophenyl)-7-methyl-8-{[5-(3-methyl-2-thienyl)-1,3-oxazol-4-yl]methyl}-2-thia-1,8-diazaspiro[4.5]dec-3-ene 2,2-dioxide]: the IC50 amounted to 1.82 µM under setting [1] and 2.84 µM under setting [2].
On to `Cc1cncc(-c2ocnc2CN2CC[C@]3(C=CS(=O)(=O)N3c3cccc(F)c3)C[C@@H]2C)c1` [Example 38, (5R,7S)-1-(3-fluorophenyl)-7-methyl-8-{[5-(5-methylpyridin-3-yl)-1,3-oxazol-4-yl]methyl}-2-thia-1,8-diazaspiro[4.5]dec-3-ene 2,2-dioxide], for which the IC50 is 0.752 µM under setting [1] and 2.78 µM under setting [2].
Consider `Cc1ccncc1-c1cccc(CN2CC[C@]3(C=CS(=O)(=O)N3c3cccc(F)c3)C[C@@H]2C)c1` [Example 39, (5R,7S)-1-(3-fluorophenyl)-7-methyl-8-[3-(4-methylpyridin-3-yl)benzyl]-2-thia-1,8-diazaspiro[4.5]dec-3-ene 2,2-dioxide, hydrochloride salt], for which the IC50 amounted to 0.0795 µM under setting [1] and 0.414 µM under setting [2].
Regarding `C[C@H]1C[C@@]2(C=CS(=O)(=O)N2c2cccc(F)c2)CCN1Cc1ncoc1-c1cncc(F)c1` [Example 40, (5R,7S)-1-(3-fluorophenyl)-8-{[5-(5-fluoropyridin-3-yl)-1,3-oxazol-4-yl]methyl}-7-methyl-2-thia-1,8-diazaspiro[4.5]dec-3-ene 2,2-dioxide, hydrochloride salt], the IC50 runs as follows: under setting [1], 1.38 µM; under setting [2], 2.38 µM.
On the same counts, the results for `C[C@H]1C[C@@]2(C=CS(=O)(=O)N2c2cccc(F)c2)CCN1Cc1ccc2[nH]ccc2c1` [Example 41, (5R,7S)-1-(3-fluorophenyl)-8-(1H-indol-5-ylmethyl)-7-methyl-2-thia-1,8-diazaspiro[4.5]dec-3-ene 2,2-dioxide] are 0.703 µM and 2.38 µM.
On the same counts, the results for `COc1ccc2[nH]c(CN3CC[C@]4(C=CS(=O)(=O)N4c4cccc(F)c4)C[C@@H]3C)cc2c1` [Example 42, (5R,7S)-1-(3-fluorophenyl)-8-[(5-methoxy-1H-indol-2-yl)methyl]-7-methy1-2-thia-1,8-diazaspiro[4.5]dec-3-ene 2,2-dioxide] are 0.117 µM and 2.22 µM.
Consider `C[C@H]1C[C@@]2(C=CS(=O)(=O)N2c2cccc(F)c2)CCN1Cc1scnc1-c1cncnc1` [Example 43, (5R,7S)-1-(3-fluorophenyl)-7-methyl-8-[(4-pyrimidin-5-yl-1,3-thiazol-5-yl)methyl]-2-thia-1,8-diazaspiro[4.5]dec-3-ene 2,2-dioxide], for which the IC50 reads like this: under setting [1], 0.975 µM; under setting [2], 8.25 µM.
On the same counts, the results for `C[C@H]1C[C@@]2(C=CS(=O)(=O)N2c2cccc(F)c2)CCN1Cc1scnc1-c1cncc(F)c1` [Example 44, (5R,7S)-1-(3-fluorophenyl)-8-{[4-(5-fluoropyridin-3-yl)-1,3-thiazol-5-yl]methyl}-7-methyl-2-thia-1,8-diazaspiro[4.5]dec-3-ene 2,2-dioxide, hydrochloride salt] are 3.07 µM and 8.46 µM.
